Data: patent publication US11814416B2, “Polypeptide capable of passing through blood-brain barrier” (SHENZHEN RUIJIAN […] COMPANY, priority 2018, dated 2023)
Like-named read-outs stand apart in the source and are kept apart here.

Test system: CaV2.2 channels (α1B, α2δ1 and β3)
Format: cell-based, Rat
Conditions: for IC50: read-out: half inhibitory concentration for inhibition of CaV2.2 channel

Row | Sequence | reduction of the peak Ca2+ current (1 μM) [%] | IC50 [µM] | reduction of the peak Ca2+ current [%]
1 | CKGKGAKCSRLMYDCCTGSCRSGKCGGGYGRKKRRQRRR [MVIIA-d] | 84.26±3.127 | 0.345 | 
2 | CKGKGAKCSRLMYDCCTGSCRSGKCGGYGRKKRRQRRR [MVIIA-c] | 98.81±0.427 | 0.237 | 
3 | CKGKGAKCSRLMYDCCTGSCRSGKCGYGRKKRRQRRR [MVIIA-b] |  | 0.379 | 91.70±1.477
4 | CKGKGAKCSRLMYDCCTGSCRSGKCYGRKKRRQRRR [MVIIA-a] | 89.45±0.752 | 0.413 | 
